Assay results published in ChEMBL document CHEMBL1268985, “Syntheses of fluorescent imidazoquinoline conjugates as probes of Toll-like receptor 7” (Bioorg Med Chem Lett, 2010).

Tests used:
Toll-like receptor 7 = target: T1, Toll-like receptor 7 (Homo sapiens, UniProt Q9NYK1); test: Agonist activity at human TLR7 expressed in HEK-Blue-7 cells assessed as increase in NF-kappaB activation by sAP assay; assay type: functional, cell-based
T1 sequence (Q9NYK1 whole entry): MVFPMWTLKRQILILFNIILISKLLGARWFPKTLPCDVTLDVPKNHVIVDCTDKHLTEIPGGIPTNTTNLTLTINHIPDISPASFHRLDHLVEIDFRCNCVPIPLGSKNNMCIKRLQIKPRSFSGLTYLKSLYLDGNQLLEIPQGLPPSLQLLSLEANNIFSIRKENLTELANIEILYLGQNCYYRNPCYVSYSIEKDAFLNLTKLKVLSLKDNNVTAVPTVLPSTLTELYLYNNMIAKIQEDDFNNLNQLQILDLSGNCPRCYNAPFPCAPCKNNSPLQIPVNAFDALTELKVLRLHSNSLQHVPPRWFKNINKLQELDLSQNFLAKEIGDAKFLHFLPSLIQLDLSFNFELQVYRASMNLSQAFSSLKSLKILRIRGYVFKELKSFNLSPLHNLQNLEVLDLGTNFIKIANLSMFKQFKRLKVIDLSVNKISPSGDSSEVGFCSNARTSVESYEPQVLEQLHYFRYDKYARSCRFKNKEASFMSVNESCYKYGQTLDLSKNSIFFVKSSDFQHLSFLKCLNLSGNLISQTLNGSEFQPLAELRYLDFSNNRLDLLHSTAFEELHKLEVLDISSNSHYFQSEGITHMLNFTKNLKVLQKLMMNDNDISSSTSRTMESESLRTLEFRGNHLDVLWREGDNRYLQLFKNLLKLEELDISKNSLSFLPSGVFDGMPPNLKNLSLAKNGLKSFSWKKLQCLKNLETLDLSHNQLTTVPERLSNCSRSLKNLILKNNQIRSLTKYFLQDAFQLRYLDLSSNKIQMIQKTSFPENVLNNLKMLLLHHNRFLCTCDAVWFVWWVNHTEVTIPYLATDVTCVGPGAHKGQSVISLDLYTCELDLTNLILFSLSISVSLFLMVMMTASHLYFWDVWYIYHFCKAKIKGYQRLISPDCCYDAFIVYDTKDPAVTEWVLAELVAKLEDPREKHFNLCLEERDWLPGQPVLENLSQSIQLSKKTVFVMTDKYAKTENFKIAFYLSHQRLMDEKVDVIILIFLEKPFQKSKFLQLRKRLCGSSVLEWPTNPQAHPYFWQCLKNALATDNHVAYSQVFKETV

[1] = Drug uptake in mouse J774.1 cells assessed as perinuclear localization at 100 nM by confocal fluorescence microscopy; assay type: ADME, cell-based; details: j774.1, 0.1 µM
[2] = Drug uptake in human CD3-/CD56+ natural killer cells treated for 30 mins by flow cytometry; assay type: ADME; details: nk cell, 0.5 h
[3] = Drug uptake in human CD3+/CD56- T lymphocytes treated for 30 mins by flow cytometry; assay type: ADME, cell-based; details: t-cell, 0.5 h
[4] = Drug uptake in human CD3-/CD56- B lymphocytes treated for 30 mins by flow cytometry; assay type: ADME, cell-based; details: b-cell, 0.5 h

| EC50 (Toll-like receptor 7) | Drug uptake [1] | Drug uptake [3] | Drug uptake [4] | Compound | Drug uptake [2] |
| --- | --- | --- | --- | --- | --- |
| 115 nM | – | – | – | CCCCc1nc2c(N)nc3ccccc3c2n1Cc1ccc(CNC(=S)Nc2ccc(-c3c4ccc(=[N+](CC)CC)cc-4oc4cc(N(CC)CC)ccc34)c(C(=O)O)c2)cc1 | – |
| 396 nM | – | – | – | CCCCc1nc2c(N)nc3ccccc3c2n1Cc1cccc2ccccc12 | – |
| 108 nM | Active | – | – | CCCCc1nc2c(N)nc3ccccc3c2n1Cc1ccc(CNC(=S)NCCCCCNC(=O)COc2ccc(C3=[N+]4C(=Cc5ccc(-c6cccs6)n5[B-]4(F)F)C=C3)cc2)cc1 | – |
| 247 nM | – | Active | Active | CCCCc1nc2c(N)nc3ccccc3c2n1Cc1ccc(CNC(=S)Nc2cccc(-c3c4ccc(=O)cc-4oc4cc(O)ccc34)c2C(=O)O)cc1 | Active |
